Measurements reported in patent publication US12617762B2, “Carboxy derivatives with antiinflamatory properties” (Sitryx Therapeutics Limited, priority 2019, dated 2026).
pIC50: −log10 of the molar value.

Experiments:
[1] = test system: IL-1β cytokine output from THP-1s; assay: THP-1 AlphaLISA IL-1β cytokine inhibition assay; format: cell-based; details: Homo sapiens, THP-1, differentiated THP-1 cells, LPS then nigericin
Protocol: Measuring Inhibitory Effects on IL-1β Cytokine Output from THP-1s
The cytokine inhibition profiles of compounds of formula (I) were determined in a differentiated THP-1 cell assay. All assays were performed in RPMI-1640 growth medium (Gibco), supplemented with 10% fetal bovine serum (FBS; Gibco), 1% penicillin-streptomycin and 1% sodium pyruvate unless specified otherwise. The IL-1β cytokine inhibition assay was run in a background of differentiated THP-1 cells as described below. All reagents described were from Sigma-Aldrich unless specified otherwise. Compounds were prepared as 10 mM DMSO stocks.
THP-1 cells were expanded as a suspension up to 80% confluence in appropriate growth medium. Cells were harvested, suspended, and treated with an appropriate concentration of phorbol 12-myristate 13-acetate (PMA) over a 72 hr period (37° C./5% CO2).
Following 72 hrs of THP-1 cell incubation, cellular medium was removed and replaced with fresh growth media containing 1% of FBS. Working concentrations of compounds were prepared separately in 10% FBS treated growth medium and pre-incubated with the cells for 30 minutes (37° C./5% CO2). Following the 30 minute compound pre-incubation, THP-1s were treated with an appropriate concentration of LPS and the cells were subsequently incubated for a 24 hr period (37° C./5% CO2). An appropriate final concentration of Nigericin was then dispensed into the THP-1 plates and incubated for 1 hour (37° C./5% CO2) before THP-1 supernatants were harvested and collected in separate polypropylene 96-well holding plates.
Reagents from an IL-1β and IL-6 commercial kit (Perkin Elmer) were prepared and run according to the manufacturer's instructions. Subsequently, fluorescence signal detection in a microplate reader was measured (EnVision® Multilabel Reader, Perkin Elmer).
Percentage inhibition was calculated per cytokine by normalising the sample data to the high and low controls used within each plate (+/− LPS respectively).

[2] = Hepatocyte stability assay, human; format: in vitro ADME; details: human, hepatocytes; for hepatocyte CLint at 10 μM: Hepatocyte stability Clint; for half-life at 10 μM: Hepatocyte stability T½
From the text: (§1) Defrosted cryo-preserved hepatocytes (viability >70%) were used to determine the metabolic stability of a compound via calculation of intrinsic clearance (CIint; a measure of the removal of a compound from the liver in the absence of blood flow and cell binding). Clearance data are particularly important for in vitro work as they can be used in combination with in vivo data to predict the half-life and oral bioavailability of a drug.
(§2) The metabolic stability in hepatocytes assay involves a time-dependent reaction using both positive and negative controls. The cells were pre-incubated at 37° C. then spiked with test compound (and positive control); samples were taken at pre-determined time intervals and were analysed to monitor the change in concentration of the initial drug compound over 60 minutes. A buffer incubation reaction (with no hepatocytes present) acted as a negative control and two cocktail solutions, containing compounds with known high and low clearance values (verapamil/7-hydroxycoumarin and propranolol/diltiazem), acted as positive controls. • 1. The assay was run with a cell concentration of 0.5×10^6 cells/mL in Leibovitz buffer. • 2. All compounds and controls were run in duplicate. • 3. Compound concentration was 10 μM. • 4. All compounds and controls were incubated with both cells and buffer to show turnover was due to hepatic metabolism. • 5. All wells on the incubation plate had 326.7 μL of either cells or buffer added. • 6. Prior to assay, cell and buffer-only incubation plates were preincubated for 10 mins at 37° C. • 7. The assay was initiated by adding compounds, 3.3 μL of 1 mM in 10% DMSO—90% Buffer; final DMSO concentration was 0.1%. • 8. Samples were taken at regular timepoints (0, 5, 10, 20, 40, 60 min) until 60 mins. • 9. Sample volume was 40 μL and was added to 160 μL of crash solvent (acetonitrile with internal standard) and stored on ice. • 10. At the end of the assay, the crash plates were centrifuged at 3500 rpm for 20 mins at 4° C. • 11. 80 μL of clear supernatant was removed and mixed with 80 μL of deionised water before being analysed by LC-MS/MS.
(§3) Raw LC-MS/MS data was exported to, and analysed in, Microsoft Excel for determination of intrinsic clearance. The percentage remaining of a compound was monitored using the peak area of the initial concentration as 100%. Intrinsic clearance and half-life values were calculated using a graph of the natural log of percentage remaining versus the time of reaction in minutes.

[3] = Hepatocyte stability assay, mouse; format: in vitro ADME; details: mouse, hepatocytes; for hepatocyte CLint at 10 μM: Hepatocyte stability Clint; for half-life at 10 μM: Hepatocyte stability T½
From the text: as §1, §2, §3

Structure (SMILES)	pIC50 [1]	hepatocyte CLint at 10 μM [2] [µL/min/1e6 cells]	half-life at 10 μM [2] [min]	hepatocyte CLint at 10 μM [3] [µL/min/1e6 cells]	half-life at 10 μM [3] [min]
C=C(Cc1nc(C2(c3ccc(OC4CCC4)cc3)CC2)no1)C(=O)O [Example 111, 2-((3-(1-(4-cyclobutoxyphenyl)cyclopropyl)-1,2,4-oxadiazol-5-yl)methyl)acrylic acid]	4.50	23	71	382	3
C=C(Cc1nc(-c2ccc(C(F)(F)CCC)cc2)no1)C(=O)O [Example 98, 2-((3-(4-(1,1-difluorobutyl)phenyl)-1,2,4-oxadiazol-5-yl)methyl)acrylic acid]	4.43	70	23	208	6
C=C(Cc1nc(C(F)(F)c2cc(Cl)c(F)c(Cl)c2)no1)C(=O)O [Example 153, 2-((3-((3,5-dichloro-4-fluorophenyl)difluoromethyl)-1,2,4-oxadiazol-5-yl)methyl)acrylic acid]	4.76	23	62	44	34
C=C(Cc1nc(C2(c3ccc(C4CCCC4)cc3)CC2)no1)C(=O)O [Example 115]	5.10	28	55	87	15
C=C(Cc1nc(-c2ccc(OCCCC)c(F)c2)no1)C(=O)O [Example 129, 2-((3-(4-butoxy-3-fluorophenyl)-1,2,4-oxadiazol-5-yl)methyl)acrylic acid]	4.69	67	22	> 460	< 3
C=C(Cc1nc(-c2ccc(OCc3ccccc3)cc2)no1)C(=O)O [Example 100, 2-((3-(4-(benzyloxy)phenyl)-1,2,4-oxadiazol-5-yl)methyl)acrylic acid]	4.59	77	19	> 460	< 3
C=C(Cc1cnc(CCCCCCCC)cn1)C(=O)O [Example 113]	4.70	290	5	> 460	< 3
C=C(Cc1nc(C(F)(F)c2ccc(S(F)(F)(F)(F)F)cc2)no1)C(=O)O [Example 124, 2-((3-(difluoro(4-(pentafluoro-λ^6-sulfaneyl)phenyl)methyl)-1,2,4-oxadiazol-5-yl)methyl)acrylic acid]	4.78	14	105	55	27
C=C(Cc1nc(C2(c3ccc(I)cc3)CC2)no1)C(=O)O [Example 117, 2-((3-(1-(4-iodophenyl)cyclopropyl)-1,2,4-oxadiazol-5-yl)methyl)acrylic acid]	5.47	36	43	183	7
C=C(Cc1nc(-c2cccc(CCCC)c2)no1)C(=O)O [Example 27, 2-((3-(3-butylphenyl)-1,2,4-oxadiazol-5-yl)methyl)acrylic acid]	4.53	156	8	281	5
C=C(Cc1noc(C(F)(F)c2ccc(C(F)(F)F)cc2)n1)C(=O)O [Example 97, 2-((5-(difluoro(4-(trifluoromethyl)phenyl)methyl)-1,2,4-oxadiazol-3-yl)methyl)acrylic acid]	4.66	13	125	79	15
C=C(Cc1nc(C(F)(F)c2ccc(I)cc2)no1)C(=O)O [Example 120, 2-((3-(difluoro(4-iodophenyl)methyl)-1,2,4-oxadiazol-5-yl)methyl)acrylic acid]	5.44	10	154	66	20

Second part, the compound after the results:

pIC50 [1]	hepatocyte CLint at 10 μM [2] [µL/min/1e6 cells]	half-life at 10 μM [2] [min]	hepatocyte CLint at 10 μM [3] [µL/min/1e6 cells]	half-life at 10 μM [3] [min]	Structure (SMILES)
4.84	245	6	478	3	C=C(Cc1nc(Cc2ccc(CCCC)cc2)co1)C(=O)O [Example 127, 2-((4-(4-butylbenzyl)oxazol-2-yl)methyl)acrylic acid]
4.80	13	112	17	75	C=C(Cc1nc(Cc2cc(Cl)c(F)c(Cl)c2)no1)C(=O)O [Example 134, 2-((3-(3,5-dichloro-4-fluorobenzyl)-1,2,4-oxadiazol-5-yl)methyl)acrylic acid]
5.10	34	43	139	11	C=C(Cc1nc(C2(c3ccc(C4CCC4)cc3)CC2)no1)C(=O)O [Example 131, 2-((3-(1-(4-cyclobutylphenyl)cyclopropyl)-1,2,4-oxadiazol-5-yl)methyl)acrylic acid]
4.64	53	23	105	19	C=C(Cc1nc(C(F)(F)c2ccc(C)c(Cl)c2)no1)C(=O)O [Example 151, 2-((3-((3-chloro-4-methylphenyl)difluoromethyl)-1,2,4-oxadiazol-5-yl)methyl)acrylic acid]
5.52	96	15	> 460	< 3	C=C(Cc1nc(C2(c3ccc(Br)c(Cl)c3)CC2)no1)C(=O)O [Example 138, 2-((3-(1-(4-bromo-3-chlorophenyl)cyclopropyl)-1,2,4-oxadiazol-5-yl)methyl)acrylic acid]
4.55	60	25	290	5	C=C(Cc1ccc(CCCCCCCC)nn1)C(=O)O [Example 116]
5.02	41	35	203	7	C=C(Cc1nc(C(F)(F)c2ccc(Br)c(Cl)c2)no1)C(=O)O [Example 154, 2-((3-((4-bromo-3-chlorophenyl)difluoromethyl)-1,2,4-oxadiazol-5-yl)methyl)acrylic acid]
